Here are results for 19 compounds from patent publication US9226501B2, “Pesticidal compositions and processes related thereto” (Dow AgroSciences LLC, priority 2012, dated 2016).

The test system of assay [1] is Beet Armyworm (BAW) (spodoptera exigua). Briefly: Bioassay on beet armyworm (BAW), 128-well diet tray assay. In kind it is in vivo. Conditions: for BAW Rating: Table 3, beet armyworm; for pest or weed control at 50 µg/cm2: Spodoptera exigua, 168 h, % mortality, second instar larvae, 50 μg/cm^2 on artificial diet, five to seven days, 25° C., read-out: BAW Rating. The method, then:
(§1) Certain molecules disclosed in this document were tested against BAW, CEW and CL using procedures described in the following examples. In the reporting of the results, the “BAW & CEW & CL Rating Table” was used (See Table Section).
Bioassays on BAW were conducted using a 128-well diet tray assay. One to five second instar BAW larvae were placed in each well (3 mL) of the diet tray that had been previously filled with 1 mL of artificial diet to which 50 μg/cm^2 of the test compound (dissolved in 50 μL of 90:10 acetone-water mixture) had been applied (to each of eight wells) and then allowed to dry. Trays were covered with a clear self-adhesive cover, and held at 25° C., 14:10 light-dark for five to seven days. Percent mortality was recorded for the larvae in each well; activity in the eight wells was then averaged. The results are indicated in the tables entitled “Table 3: Assay Results Part 1” and “Table 4: Assay Results Part 2” (See Table Section).

Assay [2] relates to Cabbage Looper (CL) (Trichoplusia ni). Nature of the assay: Bioassay on cabbage looper (CL), 128-well diet tray assay. The assay is classed as in vivo. As to conditions: for pest or weed control at 50 µg/cm2: Trichoplusia ni, 168 h, % mortality, second instar larvae, 50 μg/cm^2 on artificial diet, five to seven days, 25° C., read-out: CL Rating; for CL Rating: Table 5, prophetic compounds subsequently exemplified, cabbage looper. The method, then:
as §1
Bioassays on CL were conducted using a 128-well diet tray assay. One to five second instar CL larvae were placed in each well (3 mL) of the diet tray that had been previously filled with 1 mL of artificial diet to which 50 μg/cm^2 of the test compound (dissolved in 50 μL of 90:10 acetone-water mixture) had been applied (to each of eight wells) and then allowed to dry. Trays were covered with a clear self-adhesive cover, and held at 25° C., 14:10 light-dark for five to seven days. Percent mortality was recorded for the larvae in each well; activity in the eight wells was then averaged. The results are indicated in the table entitled “Table 4: Assay Results Part 2” (See Table Section).

Take `O=C(NCC(=S)NCC(F)(F)F)c1ccc(/C=C/C(c2cc(Cl)c(Cl)c(Cl)c2)C(F)(F)F)cc1Br` (centres unmarked) [AC92, (E)-2-Bromo-N-(2-thioxo-2-((2,2,2-trifluoroethyl)amino)ethyl)-4-(4,4,4-trifluoro-3-(3,4,5-trichlorophenyl)but-1-en-1-yl)benzamide]: the “BAW Rating” value in assay [1] is given as “A (50-100)”.
As for `N#CCN1CCC(NC(=O)c2ccc(/C=C/C(c3cc(Cl)c(Cl)c(Cl)c3)C(F)(F)F)cc2Br)CC1` (centres unmarked) [AC107], the “BAW Rating” value in assay [1] was “B (More than 0-Less than 50)”.
With `O=C(NC1CCN(C2COC2)CC1)c1ccc(/C=C/C(c2cc(Cl)c(Cl)c(Cl)c2)C(F)(F)F)cc1Br` (centres unmarked) [AC108, (E)-2-Bromo-N-(1-(oxetan-3-yl)piperidin-4-yl)-4-(4,4,4-trifluoro-3-(3,4,5-trichlorophenyl)but-1-en-1-yl)benzamide], the “BAW Rating” value in assay [1] is given as “B (More than 0-Less than 50)”.
On the same count and under the same terms, as for `O=C(NCCc1ccc(Cl)nc1)c1ccc(/C=C/C(c2cc(Cl)c(Cl)c(Cl)c2)C(F)(F)F)cc1Br` (centres unmarked) [AC113], the entry is “B (More than 0-Less than 50)”; as for `O=C(NCc1ccc(/C=C/C(c2cc(Cl)c(Cl)c(Cl)c2)C(F)(F)F)cc1C(F)(F)F)c1cccnc1` (centres unmarked) [CC23], “A (50-100)”; as for `CCNC(=O)NCc1ccc(/C=C/C(c2cc(Cl)cc(Cl)c2)C(F)(F)F)cc1Cl` (centres unmarked) [CC31, (E)-1-(2-Chloro-4-(3-(3,5-dichlorophenyl)-4,4,4-trifluorobut-1-en-1-yl)benzyl)-3-ethylurea], “B (More than 0-Less than 50)”.
As to `FC(F)(F)C(/C=C/c1ccc(-n2cncn2)cc1)c1ccccc1` (centres unmarked) [DC3], the “BAW Rating” value in assay [1] is given as “B (More than 0-Less than 50)”.
With `O=C(CNC(=O)c1ccc(/C=C/C(c2cc(Cl)c(Cl)c(Cl)c2)C(F)(F)F)cc1Cl)NCC(F)F` (centres unmarked) [FA1], the pest or weed control at 50 µg/cm2 in assay [1] and in assay [2] was 50 to 100% throughout.
As for `Cc1cc(/C=C/C(c2cc(Cl)c(Cl)c(Cl)c2)C(F)(F)F)ccc1C(=O)NCC(=O)NCC(F)F` (centres unmarked) [FA2], the pest or weed control at 50 µg/cm2 in assay [1] and in assay [2] was 50 to 100% each time.
`O=C(CNC(=O)c1ccc(/C=C/C(c2cc(Cl)c(Cl)c(Cl)c2)C(F)(F)F)cc1Br)NCC(F)F` (centres unmarked) [FA3]: the pest or weed control at 50 µg/cm2 in assay [1] and in assay [2] was 50 to 100% throughout.
Regarding `O=C(CNC(=O)c1cc(O)c(/C=C/C(c2cc(Cl)c(Cl)c(Cl)c2)C(F)(F)F)cc1Cl)NCC(F)(F)F` (centres unmarked) [FA4], the pest or weed control at 50 µg/cm2 in assay [1] and in assay [2] was 50 to 100% each time.
As to `COc1cc(C(=O)NCC(=O)NCC(F)(F)F)c(Cl)cc1/C=C/C(c1cc(Cl)c(Cl)c(Cl)c1)C(F)(F)F` (centres unmarked) [FA5], the pest or weed control at 50 µg/cm2 in assay [1] and in assay [2] was 50 to 100% throughout.
Turning to `Nc1cc(/C=C/C(c2cc(Cl)c(F)c(Cl)c2)C(F)(F)F)ccc1C(=O)NCC(=O)NCC(F)(F)F` (centres unmarked) [FA6], the pest or weed control at 50 µg/cm2 in assay [1] and in assay [2] was 50 to 100% each time.
For `O=C(CNC(=O)c1ccc(/C=C/C(c2cc(Cl)c(Cl)c(Cl)c2)C(F)(F)F)cc1Br)NCCC(F)(F)F` (centres unmarked) [FA7], the pest or weed control at 50 µg/cm2 in assay [1] and in assay [2] was 50 to 100% throughout.
Take `O=C(CNC(=O)c1ccc(/C=C/C(c2cc(Cl)c(O)c(Cl)c2)C(F)(F)F)cc1Br)NCC(F)(F)F` (centres unmarked) [FA13]: the pest or weed control at 50 µg/cm2 in assay [2] fell in the range of 50 to 100%.
`CS(=O)(=O)c1cc(/C=C/C(c2cc(Cl)c(F)c(Cl)c2)C(F)(F)F)ccc1C(=O)NCC(=O)NCC(F)(F)F` (centres unmarked) [FA34]: the pest or weed control at 50 µg/cm2 in assay [2] was 50 to 100%.
For `N#Cc1c(F)cc(C(/C=C/c2ccc(C(=O)NCC(=O)NCC(F)(F)F)c(Br)c2)C(F)(F)F)cc1F` (centres unmarked) [P2], in assay [2], the “CL Rating” value was “A (50-100)”.
For the compound `C[C@@H](NC(=O)c1ccc(/C=C/C(c2cc(F)cc(Br)c2)C(F)(F)F)cc1Br)C(=O)NCC(F)(F)F` (some centres unmarked) [P298], in assay [2], the “CL Rating” value was “A (50-100)”.
On the same count and under the same terms, as for `O=C(CCNC(=O)c1ccc(/C=C/C(c2cc(Cl)c(Cl)c(Cl)c2)C(F)(F)F)cc1C(F)(F)F)NCC(F)(F)F` (centres unmarked) [P1640], the entry is “A (50-100)”.
